According to patent publication US9617311B2, “Use of PEDF-derived polypeptides for promoting stem cells proliferation and wound healing” (Mackay Memorial Hospital, priority 2011, dated 2017):

B1: full-length PEDF: Native human pigment epithelium-derived factor purified from human plasma via collagen I-sepharose resin (protein, listed as Homo sapiens)
chain: MQALVLLLCIGALLGHSSCQNPASPPEEGSPDPDSTGALVEEEDPFFKVPVNKLAAAVSNFGYDLYRVRSSTSPTTNVLLSPLSVATALSALSLGAEQRTESIIHRALYYDLISSPDIHGTYKELLDTVTAPQKNLKSASRIVFEKKLRIKSSFVAPLEKSYGTRPRVLTGNPRLDLQEINNWVQAQMKGKLARSTKEIPDEISILLLGVAHFKGQWVTKFDSRKTSLEDFYLDEERTVRVPMMSDPKAVLRYGLDSDLSCKIAQLPLTGSMSIIFFLPLKVTQNLTLIEESLTSEFIHDIDRELKTVQAVLTVPKLKLSYEGEVTKSLQEMKLQSLFDSPDFSKITGKPIKLTQVEHRAGFEWNEDGAGTTPSPGLQPAHLTFPLDYHLNQPFIFVLRDTDTGALLFIGKILDPRGP

Assays:
[1] = system: corneal wound; assay: Corneal wound healing in mice, fluorescein staining; type: in vivo, C57BL/6 mice; conditions: for corneal re-epithelialization after 48 hours: 20 μl eye ointment with 50 μM peptide once a day, 2 mm wound; for residual epithelial defect, percentage of the original wound: 50 μM peptide eye ointment once a day
Description: The experiments were performed using eight-week-old female C57BL/6 mice, and the procedures were approved by the Mackay Memorial Hospital Review Board for animal investigation. Animals were anesthetized by an intraperitoneal injection of a mixture of zoletil (6 mg/kg) and xylazine (3 mg/kg). One filter paper (0.9 mm diameter) soaked with 20% ethanol was placed on the central cornea of right eye for one minute and then irrigated extensively with PBS. Subsequently, mechanical epithelial scrape was performed using a punch under a dissection microscope to create a circular injury (2 mm diameter) at the entire corneal region of the mouse eye without encroaching the corneal stroma, limbus or conjunctiva.
Each synthetic peptide (the 39-mer, 34-mer, 29-mer, 25-mer, 20-mer, 18-mer, Mo 29-mer or Mo 20-mer) was reconstituted in DMSO as stock (5 mM) and mixed with TOBREX® eye ointment (Alcon; containing 0.3% Tobramycin and 0.5% Chlorobutanol) to a concentration 50 μM. In each of the treatment group (n=6-10), the right eye was treated with 20 μl eye ointment containing the synthetic peptide once a day after the scrape injury. In the control group (n=20), right eye was treated with 20 μl of eye ointment mixed with vehicle DMSO. Wound size was determined by staining with topical fluorescein (Fluor-I-Strip, Ayerst Laboratories, Philadelphia, Pa.) and photographed with a digital camera. The area of defect was quantified from the photographs using a computer-assisted image analyzer (Adobe Photoshop CS3 10.0) and was calculated as the percentage of residual epithelial defect at each time point/initial wound area.
To investigate the effect of PEDF-derived short peptides on corneal wound healing in mice, corneal wound was created by a circular punch (2 mm diameter), then control eye-ointment or eye-ointment containing the short synthetic PEDF peptide(s) of this invention was applied to the wounded eye, and wound healing was subsequently evaluated by fluorescein staining. No significant differences in the size of the initial abrasion were noted between synthetic PEDF peptide-treated and control mice.

[2] = system: limbal epithelial stem cells (LSCs); assay: In vitro LSC proliferation, BrdU pulse-labeling with ΔNp63α immunostaining; type: cell-based, New Zealand white rabbits; conditions: BrdU 2 hours; for percentage of BrdU and ΔNp63α-double positive cells per total ΔNp63α-positive cells: 25 nM peptide or 4.5 nM PEDF in medium, control medium 3.0±0.5%, mean±SEM
Description: LSCs were isolated from six-month-old New Zealand white rabbits and used for cell-suspension culture in accordance with the method previously described by Cheng et al. (The growth-promoting effect of KGF on limbal epithelial cells is mediated by upregulation of DeltaNp63alpha through the p38 pathway. J Cell Sci 2009; 122 (Pt 24): 4473-4480) and Wang et al. (Importin 13 serves as a potential marker for corneal epithelial progenitor cells. Stem Cells 2009; 27: 2516-2526) with a slight modification. Rabbit limbal tissues were washed in PBS containing 100 U/ml penicillin and 50 μg/ml gentamicin. After carefully removing the iris, and excessive sclera, the limbal rings were exposed to dispase II (1.2 IU/ml in Hanks' balanced salt solution free of Mg^2+ and Ca^2+) at 4° C. for 16 hours. The loosened epithelial sheets were removed with a cell scraper and separated into single cells by enzymatic digestion (0.05% trypsin, and 0.01% EDTA) for 15 min at 37° C. with gentle shaking and transferred to a stop medium (9 ml of HEPES-buffered DMEM containing 10% FBS). Cells were then collected by centrifugation (400×g for 5 min).
About 1×10^5 cells were seeded on each wells of a 6-well plate and incubated in a DMEM/Ham's F-12 basal medium (10 mM HEPES, 5 ng/ml human EGF, 1% SITE liquid medium, antibiotic-antimicotic solutions, 0.5% DMSO and 0.5 μg/ml hydrocortisone) supplemented with 10% FBS for 2 days, and then shifted to a basal medium or basal medium containing 4.5 nM PEDF, 25 nM 39-mer, 25 nM 34-mer, 25 nM 29-mer, 25 nM 25-mer, 25 nM 20-mer, 25 nM 18-mer, 25 nM Mo 29-mer or 25-nM Mo 20-mer. The cells were continued cultivated at 37° C. under 5% CO2 for another 3 days until they reached confluence (passage 0). LSCs were co-cultured with MMC-treated NIH-3T3 fibroblast feeder cells located within trans-well (0.4 μm pore, BD Biosciences, Bedford, Mass.). For passage purpose, near-confluent cells were harvested again by enzymatic treatment (i.e., 0.25% trypsin), and then 1×10^5 subcultured cells were further cultured in the respective medium, and proliferative capacity of cells was compared every 4 days after continuously culture-subculture (passage).
De-paraffinized tissue sections or 4% paraformaldehyde-fixed LSCs were blocked with 10% goat serum and 5% BSA in PBST (PBS containing 0.1% Tween-20) for 1 hour. Staining was done using primary antibodies against ΔNp63α (1:150 dilution), BrdU (1:250 dilution), and keratin-3 (1:250 dilution) at 37° C. for 2 hours, followed by incubation with the appropriate rhodamine- or FITC-conjugated donkey IgG (1:500 dilution) for 1 hour at RT. Nuclei were identified by counterstaining with Hoechst 33258 for 7 minutes. Images were captured using a Zeiss epifluorescence microscope with a CCD camera and photographs were taken by using the Axiovert software.
2×10^5 limbal cells (the 1st passage) were seeded at a slide coated with FNC COATING MIX® solution (Athena Enzyme Systems, Baltimore, Md.) and incubated with a culture medium for one day. BrdU (final, 10 μM) was added to the culture for 2 hours. After being fixed with 4% paraformaldehyde, cells were exposed to cold methanol for 2 minutes, and then treated with 1 N HCl at RT for 1 hour before performing immunofluorescence. For animal study, BrdU was reconstituted in DMSO as stock (80 mM). 10 μl of BrdU mixed with 90 μl of PBS was intraperitoneally injected into mouse 3 hours prior to euthanasia. DNA synthesis was assessed by BrdU labeling with anti-BrdU antibodies.

[3] = system: full-thickness skin excisional wounds; assay: Skin wound healing in mice, wound area from photographs; type: in vivo, C57L/B6 mice; conditions: for residual epithelial defects, percentage of the original wound: 25 μl skin ointment with 50 μM peptide once daily
Description: FIG. 6A provides photographs and FIG. 6B is a histogram, and together, they illustrate the skin (epithelial) wound-healing of mice from treatment groups according to another example of the present disclosure. 4 mm punch wounds were made on the dorsal side of C57/B6 mice. Skin ointment was treated once a day. Photographs of the wounded skin and ruler (scale 10 mm) were captured with a CCD camera (Olympus). The residual epithelial defect (%) is presented as percentage of the original wound. Data are shown as mean±SE.
To perform full-thickness skin excision, 8- to 10-week-old C57L/B6 mice were respectively anesthetized by an intraperitoneal injection of a mixture of zoletil (6 mg/kg) and xylazine (3 mg/kg). Two full-thickness skin excisional wounds, 4 mm in diameter were made on either side of the dorsal midline using Sklar Tru-Punch disposable biopsy punch (Sklar, West Chester, Pa., USA). In each treatment group (n=6), the skin wound was treated with 25 μl skin ointment (containing 50 μM synthetic peptide and 0.006 μl DMSO vehicle) once daily after the skin scraping. In the control group (n=6), skin wound was treated with 25 μl of skin ointment with equal concentration of DMSO. Each gram of the above skin ointment contains 5 mg neomycin sulfate and 12.5 mg Bacitracin Zinc. Wounds were left uncovered and harvested 4 and 7 days after injury. Mice were housed individually during the healing period.
The area of wound was quantified from the photographs using a computer-assisted image analyzer (Adobe Photoshop CS3 10.0) and was calculated as the percentage of residual epithelial defect at each time point/initial wound area.

[4] = system: hair follicle stem cells (HFSCs); assay: In vitro HFSC proliferation, BrdU pulse-labeling with Lgr6 immunostaining; type: cell-based, Human; conditions: 50 nM peptide or 4.5 nM PEDF in medium; BrdU 2 hours; control 31.9±5.6%
Description: FIG. 5A provides immunofluorescence microscopy photographs and FIG. 5B is a histogram, and together, they illustrate the in vitro proliferation of HFSCs from treatment groups according to one example of the present disclosure. HFSC proliferation was determined by BrdU labeling for 2 hours. HFSCs (Lgr6, green) and BrdU (red) were detected by immunofluorescence microscopy (original magnification, ×1000). Twenty randomly selected fields in each group were photographed, and the percentage of BrdU and Lgr6-double positive cells (pale pink) per total Lgr6-positive cells was calculated. *P<0.001 versus untreated cells.
Human hair follicles were collected from hairs of healthy donors. The follicles were dissected with tweezers under microscope and most of adipose and connective tissue was removed. The bulge region of hair follicle under the sebaceous gland was cut and then bulge fragments (including central isthmus) were transferred into a 35-mm dish containing 1 ml of collagenase A (1 mg/ml; Roche) and incubated for 1.5 hours at 37° C. to digest the collagen capsule. Subsequently, the bulge fragments were transferred into a fresh cell culture dish containing dispase II (2.4 U/ml)/0.05% trypsin and further incubated for 1.5 hours at 37° C. to obtain a single cell suspension.
After mechanical dissection and enzymatic digestion, the suspended bulge cells isolated from five bulge fragments were seeded into a well of 12-well culture plate and incubated with the basal medium for 5 days to facilitate cell adhesion. The basal medium contains four parts Gibco calcium-free Dulbecco's modified Eagle's medium (DMEM) and one part Ham's F12 medium (calcium concentration reached about 0.25 mM) and supplemented with 10% FBS, 10 ng/ml human epidermal growth factor, 500 mg/I L-glutamine, 0.2% bovine pituitary extract, […] hydrocortisone, 1% ITSE as well as antibiotic-antimicotic solutions. Cultivation method was similar to that of Blazejewska et al. (Stem Cells 2009; 27:642). After 5 days of incubation, cells were cultured in the serum-free basal medium or basal medium containing 4.5 nM PEDF, 50 nM 29-mer, or 50 nM 20-mer, until near confluence (about 2 weeks; passage 0). The medium was changed every 2 to 3 days. The bulge cells were co-cultured with 3T3 fibroblast feeder cells. For passage, near-confluent cells were harvested by enzymatic treatment (i.e., 0.25% trypsin) for 5 min at 37° C. Approximately 1×10^5 human bulge cells were transferred to a new dish and allowed to grow for 14 days to near confluence (passage 1). […]

[5] = day 4 post-injury, control 61.5±3.2%
[6] = day 7 post-injury, control 44.5±5.3%

Molecule | corneal re-epithelialization after 48 hours [1] | residual epithelial defect, percentage of the original wound ([1]; 24 hours, control 84.9±5.1%) [%] | residual epithelial defect, percentage of the original wound ([1]; 48 hours, control 39.5±3.1%) [%] | percentage of BrdU and ΔNp63α-double positive cells per total ΔNp63α-positive cells [2] [%] | residual epithelial defects, percentage of the original wound [3, 5] [%] | residual epithelial defects, percentage of the original wound [3, 6] [%] | enhanced LSC proliferation versus control medium ([2]; 25 nM peptide in medium) | promotion of skin wound healing ([3]; days 4 and 7, 50 μM peptide skin ointment once daily) | percentage of BrdU and Lgr6-double positive cells per total Lgr6-positive cells [4] [%]
ALSALSLGAEQRTESIIHRALYYDLISSPDIHGT [34-mer, short synthetic PEDF peptide derived from the 39-mer] | complete corneal re-epithelialization | 40.6±7.2 | 4.6±2.1 | 30.0±3.4 | 41.4±2.5 | 17.9±6.1 | – | – | –
EQRTESIIHRALYYDLISSPDIHGT [25-mer] | incompletely healed wounds | – | – | – | – | – | enhanced proliferation was not observed | not able to promote wound healing | –
LSVATALSALSLGAEQRTESIIHRALYYDLISSPDIHGT [39-mer, synthetic peptide, residues 83-121 of human PEDF] | complete corneal re-epithelialization | 37.2±4.3 | 4.8±2.7 | 30.1±1.9 | 48.1±3.2 | 18.4±5.7 | – | – | –
B1 | – | – | – | 22.0±1.5 | – | – | – | – | 73.8±6.0
